Laboratory results taken from ChEMBL document CHEMBL5247590, “Novel nitrogen mustard-artemisinin hybrids with potent anti-leukemia action through DNA damage and activation of GPx” (Eur J Med Chem, 2022).
Active and inactive are the calls of the source. No cut-off for these calls is given here.

Columns and labels:
[1] = system: SH-SY5Y; test: Antiproliferative activity against human SH-SY5Y cells assessed as cell growth inhibition incubated for 72 hrs by MTT assay; type: functional, cell-based
[2] = system: CCRF-CEM; test: Induction of cell cycle arrest in human CCRF-CEM cells assessed as cell accumulation at G1 phase at 0.25 uM incubated for 24 hrs by PI staining based flow cytometry analysis (reference value: 24.1 %); type: functional
[3] = system: CCRF-CEM; test: Induction of apoptosis in human CCRF-CEM cells assessed as necrotic cells at 4 uM incubated for 48 hrs by Annexin V-FITC/PI staining based flow cytometry (reference value: 0.0 %); type: functional
[4] = system: CCRF-CEM; test: Antiproliferative activity against human CCRF-CEM cells assessed as cell growth inhibition incubated for 72 hrs by MTT assay; type: functional, cell-based
[5] = system: CCRF-CEM; test: Induction of apoptosis in human CCRF-CEM cells assessed as late apoptotic cells at 0.5 uM incubated for 48 hrs by Annexin V-FITC/PI staining based flow cytometry (reference value: 3.2 %); type: functional
[6] = system: CCRF-CEM; test: Induction of apoptosis in human CCRF-CEM cells assessed downregulation of Bcl-2 expression at 0.25 to 0.5 uM incubated for 48 hrs by Western blot analysis; type: functional, cell-based; settings: dose 0.25-0.5 µM
[7] = system: CCRF-CEM; test: Induction of cell cycle arrest in human CCRF-CEM cells assessed as cell accumulation at G1 phase at 1 uM incubated for 24 hrs by PI staining based flow cytometry analysis (reference value: 24.1 %); type: functional
[8] = system: U-118-MG; test: Antiproliferative activity against human U-118-MG cells assessed as cell growth inhibition incubated for 72 hrs by MTT assay; type: functional, cell-based
[9] = system: HL-60; test: Antiproliferative activity against human HL-60 cells assessed as cell growth inhibition incubated for 72 hrs by MTT assay; type: functional, cell-based; settings: HL-60, 72 h
[10] = system: CCRF-CEM; test: Induction of apoptosis in human CCRF-CEM cells assessed as viable cells at 2 uM incubated for 48 hrs by Annexin V-FITC/PI staining based flow cytometry (reference value: 83.4 %); type: functional; settings: read-out: Activity
[11] = system: CCRF-CEM; test: Induction of apoptosis in human CCRF-CEM cells assessed as late apoptotic cells at 2 uM incubated for 48 hrs by Annexin V-FITC/PI staining based flow cytometry (reference value: 3.2 %); type: functional
[12] = system: CCRF-CEM; test: Induction of apoptosis in human CCRF-CEM cells assessed as early apoptotic cells at 0.5 uM incubated for 48 hrs by Annexin V-FITC/PI staining based flow cytometry (reference value: 13.4 %); type: functional
[13] = system: CCRF-CEM; test: Downregulation of ROS level in human CCRF-CEM cells assessed as H2O2 level at 1 uM incubated for 12 hrs in presence of NADPH by absorbance based assay; type: functional, cell-based
[14] = system: CCRF-CEM; test: Induction of apoptosis in human CCRF-CEM cells incubated for 48 hrs by Hoechst staining based fluorescent microscopy; type: functional, cell-based; settings: dose 1-4 µM
[15] = system: CCRF-CEM; test: Induction of cell cycle arrest in human CCRF-CEM cells assessed as cell accumulation at G2/M phase at 0.25 uM incubated for 24 hrs by PI staining based flow cytometry analysis (reference value: 61.3 %); type: functional
[16] = system: CCRF-CEM; test: Induction of apoptosis in human CCRF-CEM cells assessed as viable cells at 1 uM incubated for 48 hrs by Annexin V-FITC/PI staining based flow cytometry (reference value: 83.4 %); type: functional; settings: read-out: Activity
[17] = Antiproliferative activity against human L02 cells assessed as cell growth inhibition incubated for 72 hrs by MTT assay; type: toxicity, cell-based
[18] = system: CCRF-CEM; test: Induction of cell cycle arrest in human CCRF-CEM cells assessed as cell accumulation at S phase at 1 uM incubated for 24 hrs by PI staining based flow cytometry analysis (reference value: 15.5 %); type: functional
[19] = system: CCRF-CEM; test: Downregulation of ROS level in human CCRF-CEM cells assessed as CAT level at 1 uM incubated for 12 hrs in presence of NADPH by absorbance based assay; type: functional, cell-based
[20] = system: CCRF-CEM; test: Downregulation of ROS level in human CCRF-CEM cells assessed as effect on H2O2 level at 0.125 to 0.5 uM incubated for 12 hrs in presence of NADPH by DCFH-DA probe based flow cytometry analysis; type: functional, cell-based; settings: dose 0.125-0.5 µM
[21] = system: CCRF-CEM; test: Induction of apoptosis in human CCRF-CEM cells assessed as viable cells at 0.25 uM incubated for 48 hrs by Annexin V-FITC/PI staining based flow cytometry (reference value: 83.4 %); type: functional; settings: read-out: Activity
[22] = system: CCRF-CEM; test: Induction of DNA damage in human CCRF-CEM cells assessed as increase in gammaH2AX phosphorylation incubated for 24 hrs by DAPI staining based immunofluorescence microscopic analysis; type: functional, cell-based; settings: dose 1-4 µM
[23] = system: CCRF-CEM; test: Induction of apoptosis in human CCRF-CEM cells assessed as necrotic cells at 0.25 uM incubated for 48 hrs by Annexin V-FITC/PI staining based flow cytometry (reference value: 0.0 %); type: functional
[24] = system: CCRF-CEM; test: Induction of cell cycle arrest in human CCRF-CEM cells assessed as cell accumulation at G2/M phase at 2 uM incubated for 24 hrs by PI staining based flow cytometry analysis (reference value: 61.3 %); type: functional
[25] = system: CCRF-CEM; test: Induction of cell cycle arrest in human CCRF-CEM cells assessed as cell accumulation at G1 phase at 0.5 uM incubated for 24 hrs by PI staining based flow cytometry analysis (reference value: 24.1 %); type: functional
[26] = system: A549; test: Antiproliferative activity against human A549 cells assessed as cell growth inhibition incubated for 72 hrs by MTT assay; type: functional, cell-based; settings: A549, 72 h

With C[C@@H]1CC[C@H]2[C@@H](C)C(OC(=O)c3ccc(N(CCCl)CCCl)cc3)O[C@@H]3O[C@@]4(C)CC[C@@H]1[C@]32OO4 (stereo partly specified) the IC50 [1] was > 40000 nM, the Activity [2] was 26.8% and the Activity [3] was 0.1%. The IC50 [4] was 895 nM, the Activity [5] was 6.9% and the Activity [6] was “Active”. For the same compound, the Activity [7] was 18.2%, the IC50 [8] was > 40000 nM and the IC50 [9] was 2320 nM. It also gave a viability at 2 µM [10] of 53.8%, an Activity [11] of 12.8% and an Activity [12] of 78.6%. The Activity [13] was “inactive”, the Activity [14] was “Dose-Dependent Effect” and the Activity [15] was 65.9%. For the same compound, the viability at 1 µM [16] was 60.4%, the IC50 at 72 h [17] was > 40000 nM and the Activity [18] was 35.1%. For the same compound, the Activity [19] was “inactive”, the Activity [20] was “Active” and the viability at 0.25 µM [21] was 67.7%. For the same compound, the Activity [22] was “Dose-Dependent Effect”, the Activity [23] was 0.1% and the Activity [24] was 67.1%. For the same compound, the Activity [25] was 22.8% and the IC50 [26] was 2870 nM.
